We go through four molecules from PMC8205077, “Phenyl-substituted aminomethylene-bisphosphonates inhibit human P5C reductase and show antiproliferative activity against proline-hyperproducing tumour cells” (Journal of Enzyme Inhibition and Medicinal Chemistry, 2021).

Structures can show the parent of a compound that is named as a salt. Where two headings read alike, the source gives them in different places. Where only a bound is given, the exact number is not on record here.

The Ki is a measure of affinity in units of concentration, obtained from inhibition or displacement.

Series [1] concerns the target T1, human P5C reductase 1 (PYCR1) (Homo sapiens, UniProt P32322).
T1 construct: His-tag; made in house; host or cells: E. coli BL21(DE3) pLysS
T1 sequence (P32322 1-319): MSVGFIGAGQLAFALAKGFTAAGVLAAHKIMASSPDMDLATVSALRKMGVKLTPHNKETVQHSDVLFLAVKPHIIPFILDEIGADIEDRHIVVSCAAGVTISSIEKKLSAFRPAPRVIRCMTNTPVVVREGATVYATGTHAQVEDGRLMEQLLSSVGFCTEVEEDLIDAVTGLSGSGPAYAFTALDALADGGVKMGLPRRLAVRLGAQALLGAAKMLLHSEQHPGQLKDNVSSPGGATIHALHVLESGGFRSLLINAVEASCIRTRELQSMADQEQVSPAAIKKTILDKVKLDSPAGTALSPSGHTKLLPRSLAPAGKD
The series can be described thus: P5C reductase assay (P5C-dependent oxidation of NAD(P)H). The class given is biochemical. To be noted: for effect on the activity of human P5C reductase: at concentrations as low as 1 μM. The protocol:
The gene coding for P5C reductase 1 (PYCR1, gene ID 5831), cloned into the expression vector pET28a^+[34], was kindly provided by prof. Zihe Rao (Tsinghua University, China). For heterologous expression, E. coli BL21(DE3) pLysS cells (Invitrogen) were made competent by the calcium chloride method, transformed with the recombinant vector and selected on kanamycin-containing LB plates. About 6 h after inducing gene expression in liquid LB medium at 24 °C by the addition of 1 mM isopropyl-D-thiogalactopyranoside, cells were harvested by centrifugation and stored at −20 °C. Aliquots (about 1 g cell material) were lysed in an ice-cold mortar with 2 g g^−1 alumina and resuspended in 20 mL g^−1 extraction buffer (50 mM Na phosphate buffer, pH 7.5, containing 200 mM NaCl and 20 mM imidazole). The His-tagged protein was purified from clarified extracts by affinity chromatography onto a His-Trap^TM FF column (1 mL, GE Healthcare 17–5319-01). Stepwise elution was achieved by increasing concentrations of imidazole in extraction buffer. Discontinuous SDS–polyacrylamide gel electrophoresis was performed at 8 mA with a 5% stacking and a 12% separating gel, using a Minigel system (BioRad). Samples were mixed with the same volume of 125 mM Tris–HCl buffer (pH 6.8) containing 4% (w/v) SDS, 20% (v/v) glycerol and 10% (v/v) β-mercaptoethanol, and denatured 5 min at 100 °C. Proteins were visualised by soaking gels in Quick Coomassie Stain (CliniSciences) overnight.
Enzyme activity was measured at 30 °C as the P5C-dependent oxidation of NAD(P)H. Assays were performed in 96-microwell plates in a final volume of 0.2 mL. The assay mixture contained 4 mM DL-P5C and 0.5 mM of either NADH or NADPH in 50 mM Tris-HCl buffer, pH 7.5. Parallel blanks were performed in which P5C had been omitted. The decrease of absorbance was measured for 5 min at 0.5-min intervals using a Ledetect plate reader (Labexim, Lengau, Austria) equipped with a LED plugin at 340 nm. Residual NAD(P)H content was estimated on the basis of calibration curves obtained under the same conditions. Activity was calculated by linear regression of data using Prism 6 for Windows, version 6.03 (GraphPad Software, San Diego, CA); one unit of activity was defined as the amount of enzyme that catalyses the P5C-dependent oxidation of 1 nmol NAD(P)H s^−1 (nkat). Proteins were measured by the Coomassie Brilliant Blue method, using bovine serum albumin as the standard. To evaluate substrate affinity, invariable substrates were fixed at the same levels as in the standard assay. For variable substrates, L-P5C ranged from 400 to 2000 μM, while the concentration of NADH and NADPH ranged from 125 to 500 μM. To evaluate the inhibition brought about by pargylines and aminomethylene-bisphosphonates, freshly prepared 10 mM stock solution in water and 100 mM Tris-HCl buffer pH 7.5, respectively, were diluted with water and added to the reaction mixture before enzyme addition. Parallel control samples were carried out in the absence of any inhibitor. Activity was calculated as described above. Mean activity value in controls was set as 100%, and activity in treated samples was expressed as percent of such value. Percent values were plotted against the logarithm of inhibitor concentration, and data were interpolated using the equation Y = 100/(1 + 10^∧((LogIC50-X)*HillSlope)). Assays were performed in triplicate (technical replications). Each experiment was repeated at least twice with different enzyme preparations (biological replicates). KM and Vmax values, as well as the concentrations causing 50% inhibition (IC50), KI values and their confidence intervals were estimated by non-linear regression analysis using Prism 6.

The test system of series [2] is human myelogenous erythroleukemic K562 cells. Briefly: Antiproliferative assay, K562 cells. It counts as cell-based. Particulars: for IC50: Homo sapiens, K562. The protocol:
(§1) Human myelogenous erythroleukemic K562 cells[36] were cultured in a humidified atmosphere of 5% CO2/air either in complete RPMI 1640 medium (Lonza, Verviers, Belgium) or in a modified medium without L-proline (United States Biological, Massachusetts, USA), both supplemented with 10% foetal bovine serum (FBS; Biowest, Nuaillé, France), 100 U mL^−1 penicillin and 100 μg mL^−1 streptomycin. Human epithelial breast cancer MDA-MB-231 cells[37] were cultured under the same conditions in DMEM medium (Lonza, Verviers, Belgium) supplemented with 10% FBS, 100 U mL^−1 penicillin, 100 μg mL^−1 streptomycin and 2 mM L-glutamine.
(§2) K562 cells in the late exponential phase of growth were seeded in 1 mL medium without FBS in 24-well plates to an initial density of about 20,000 cells mL^−1. Treatments with Br2PAMBPA in the range 1–200 µM were carried out 5 h after seeding. Cell growth was monitored at increasing time after the treatment by determining cell density on 50-μL aliquots with a Z1 Coulter Counter (Coulter Electronics), considering a dimensional range between 8 and 20 μm. MDA-MB-231 cells in the late exponential phase of growth (90% confluence) were washed with sterile PBS, incubated with sterile trypsin-EDTA solution (Sigma-Aldrich, Saint Louis, USA) for 2 min, resuspended in fresh DMEM medium and centrifuged at 1000 g at room temperature for 5 min. Pellets were resuspended in sterile PBS and spun again to remove any residue of trypsin. Cells were finally resuspended in DMEM medium without FBS, and seeded in 24-well plates in a final volume of 1 mL to an initial density of about 20,000 cells mL^−1. Treatments with Br2PAMBPA in the range 1–200 µM were carried out 5 h after seeding, and 2% FBS was added to each well 24 h thereafter. Cell growth was monitored at increasing time after the treatment by destructive harvest. For both cell lines each treatment was carried out at least in triplication, and each experiment was performed at least twice.

For series [3], the system named is K562 cells. Briefly: Cell viability assay (Trypan Blue exclusion), K562 cells. It counts as cell-based, human. Particulars: modified RPMI medium not containing proline, 96 h after the inoculum. On the procedure: Cell viability was assessed by the Trypan Blue exclusion test[38]. Stained cells were counted in a Bürker chamber. Viable and nonviable cells were recorded separately, and the results of three independent counts were pooled. Data were expressed as percent of alive cells.

The subject of series [4] is K562 cells. Briefly: Measurement of intracellular free proline and P5C levels, K562 cells. The class given is cell-based, human. The protocol: For proline and P5C quantification, treatments were carried out in T-25 flasks containing 10 mL medium. Cells were harvested by centrifugation at 1000 g for 5 min at RT. Each pellet was resuspended in 1.4 mL of sterile PBS and spun again to remove the medium. Washed pellets were transferred on ice, resuspended in a minimal volume of a 3% (w/v) solution of 5-sulfosalicylic acid and subjected to various freeze-thaw cycles to induce rupture of the phospholipid membrane. Cell debris were sedimented by centrifugation at 12,000 g for 5 min at RT, and the supernatants were analysed by the acid ninhydrin method of Williams and Frank, as described.

Series [5] deals with human epithelial breast cancer MDA-MB-231 cells. The series can be described thus: Antiproliferative assay, MDA-MB-231 cells. It counts as cell-based. The protocol: as §1
as §2, with “Cells were finally resuspended in DMEM medium without FBS, and seeded in 24-well plates in a final volume of 1 mL to an initial density of about 20,000 cells mL^−1.” left out

The target in the next series is human P5C reductase. To be noted: cited from earlier work.
A further series has as its target glutamine synthetase. To be noted: human enzyme; cited from earlier work.
The subject of the next series is breast cancer cell. Particulars: at 10 μM; cited from earlier work.
Where [6] appears, read: IC50, NADH as the electron donor.
Where [7] appears, read: IC50, NADPH as the electron donor.
[8] abbreviates: IC50 values, abstract, cofactor not specified.
Where [9] appears, read: treated serum-free, 2% FBS added 24 h thereafter.

Consider `O=P(O)(O)C(Nc1cc(Br)cc(Br)c1)P(=O)(O)O` [Br2PAMBPA, 3,5-dibromophenylaminomethylene-bisphosphonic acid], for which the “type of inhibition with NADH as the variable substrate” value in series [1] is “mixed-type”. Moreover, the IC50 was 0.48 ± 0.03 µM in series [1] (setting [6]); 0.39 ± 0.03 µM in series [1] (setting [7]); less than 1 µM in series [1] (setting [8]); approximately 20 µM in series [2] (modified RPMI medium not containing proline, read-out: concentration giving 50%-inhibition of growth); approximately 7 µM in series [2] (unmodified RPMI medium containing 20 mg L^−1 (174 μM) Pro, read-out: concentration giving 50% inhibition of growth). Besides, the Ki in series [1] (NADH as variable substrate (Fig. 4D)) is 0.66 ± 0.21 µM; in series [1] (NADPH as variable substrate (Fig. 4C)) it was 0.48 ± 0.08 µM; in series [1] (P5C as variable substrate, NADH as electron donor (Fig. 4B)), 0.12 ± 0.01 µM; in series [1] (P5C as variable substrate, NADPH as electron donor (Fig. 4A)), 0.32 ± 0.02 µM. For the same molecule, in series [1] (abstract), the “mechanism of inhibition against both P5C and NADPH” value was “competitive type”. In series [1], the “effect on the activity of human P5C reductase” value is recorded as “almost completely suppressed”. Moreover, the “type of inhibition against P5C” value in series [1] (with NADPH or NADH as the electron donor) is on record as “competitive type”. Also, the “concentrations progressively impairing growth” value in series [2] (abstract) and in series [5] (abstract) was 10^−6 to 10^−4 M in each case. The “concentration range in which growth was inhibited” value in series [2] (modified RPMI medium not containing proline) fell in the range of 2 to 200 µM. Besides, the “concentrations at which cell viability was significantly reduced” value in the series on K562 cells [3] is “exceeding 50 µM”. The “levels of P5C” value in the series on K562 cells [4] (all cases, detection limit printed as > 1 nmol [10^6 cells]^−1) is listed as “no detectable”. In addition, in the series on K562 cells [4] (control and treated K562 cells, with or without exogenous proline), the free proline concentration is 4–5 nmol (10^6 cells)^−1. Besides, the “intracellular levels of free proline vs controls” value in the series on K562 cells [4] (modified RPMI medium not containing proline, 96 h after the inoculum) is reported as “not significantly different than in controls”. For the same molecule, the “reduction of free proline content with respect to viable cells” value in the series on K562 cells [4] (unmodified RPMI medium with 20 mg L^−1 Pro, at 50 µM) is “less than 50%”. For the same molecule, in the series with K562 cells [4] (unmodified RPMI medium with 20 mg L^−1 Pro, up to 50 µM), the “free proline content with respect to viable cells” value was “no reduction was evident”. The “effect on cell proliferation in standard medium” value in series [5] (DMEM with FBS, concentrations exceeding 50 μM, preliminary, data not shown) is recorded as “only mild effects”. In series [5] (setting [9]), the “concentration from which cell growth rate and maximal cell density were progressively reduced” value is not below 5 µM. Besides, the “concentration from which cell proliferation was completely abolished” value in series [5] (setting [9]) is not below 50 µM.

With `C#CCN(C)Cc1ccccc1` [Pargyline, N-methyl-N-(2-propynyl)benzylamine hydrochloride, reference compound], the IC50 in series [1] (setting [6]) is more than 10000 µM; in series [1] (setting [7]), 81 µM; on human P5C reductase (listed as pargylin) it was 200 µM; at human P5C reductase (listed as pargyline) it was 198 µM.

Take `O=P(O)(O)C(Nc1cc(Cl)cc(Cl)c1)P(=O)(O)O` [3,5-Cl2PAMBPA]: the IC50 in series [1] (setting [6]) was 0.78 ± 0.04 µM; in series [1] (setting [7]) it was 0.74 ± 0.06 µM; in series [1] (setting [8]), less than 1 µM; on glutamine synthetase, 780 ± 30 µM. Moreover, the “mechanism of inhibition against both P5C and NADPH” value in series [1] (abstract) is given as “competitive type”. Further, the “effect on the activity of human P5C reductase” value in series [1] is given as “almost completely suppressed”.

As for `C#CCN(C)Cc1ccc(Br)cc1` [4-bromopargyline, reference compound], the IC50 in series [1] (setting [6]) was 234 ± 28 µM; in series [1] (setting [7]), 9 µM; in series [1] (NADPH as the electron donor, read-out: IC50), 8.7 ± 0.8 µM; at human P5C reductase, 9 µM. The “reduction of breast cancer cell proliferation” value in the series on breast cancer cell is 30–40%.
